SMILES strings stand for the structures.

Assay [1] has as its target T1, interaction between SBP and core streptavidin (Streptomyces avidinii, UniProt P22629).
T1 construct: the FRAP domain is replaced by Core streptavidin which was amplified by PCR; expressed in transfected cells; host or cells: HeLa cells, transient transfection of the hook-IRES-reporter plasmid
Briefly: RUSH^C[ID]: release of the reporter TMD22 from the hook TMD17-streptavidin. In kind it is cell-based, human. The note with it: upon biotin addition; cytoplasmic topology. As to the method:
(§1) Hela cells were grown at 37° C. in DMEM (Invitrogen) supplemented with L-glutamine, Sodium Pyruvate and 10% Fetal Calf Serum. For transient transfection, cells were plated on coverslips in 150-mm culture dishes and transfected with 25 μg of the plasmid hook-IRES-reporter using the calcium phosphate precipitation method, in presence of 25 mM HEPES. After 4 hours, cells were washed out with fresh medium and incubated overnight in presence of 3.1 nM Rapamycin (Sigma). Then cells were washed out 3 times with medium, and incubated in prewarmed medium with 3.3 μM FK506 (Cayman) and […] cycloheximide (CHX) for several time points. For each time point, 1 mL of medium containing FK506 and CHX was added into a well of a 12-well plate. Then cells were fixed with 4% PAF and processed for fluorescent microscopy. In the streptavidin/SBP set-up, transfection is done similarly but no addition is done when washing the cells after transfection. After 1-hours, biotin (10 μM) is added to induce reporter release. Then cells are then processed as in the MD set-up.
Cells were fixed in paraformaldehyde 3% for 15 min, washed in PBS (Phosphate Buffer Saline) and free aldehydes were quenched in NH4Cl 50 mM for 5 min. […]

Assay [2] has as its target T2, interaction between SBP-Tag and Streptavidin (Streptomyces avidinii, UniProt P22629, L133T/T100R/V149R/V79T).
T2 construct: expressed in transfected cells; host or cells: HeLa cells, transient transfection of the hook-IRES-reporter plasmid
Briefly: RUSH^L[ID]: release of SBP-tagged reporters from the hook Ii-Core streptavidin, by immunofluorescence and time-lapse imaging. In kind it is cell-based, human. As to the method:
The Reporter ST-SBP-GFP is retained in the ER in cells expressing the hook Ii-Core streptavidin. Biotin is added at time 00:00 (min sec) and the release of the reporter is followed by time-lapse fluorescent imaging using a spinning disk equipped confocal microscope at 37° C. The Reporter starts to be visible in the Golgi apparatus in a very short time (9:30) and labels massively the Golgi apparatus by 30 minutes.
The Reporter SBP-GFP-Ecadherin is retained in the ER in cells expressing the hook Ii-Core streptavidin. Biotin is added at time 00:00 (min:sec) and the release of the reporter is followed by time-lapse fluorescent imaging using a spinning disk equipped confocal microscope at 37° C. The Reporter is visualized using GFP as a detection domain. Significant quantities of the reporter are visible in the Golgi apparatus from 03:30 and continue to increase. The reporter starts to be visible at the plasma membrane around 30:00. Note that transport intermediates (in the form of punctuate staining) are visible at early (ER to Golgi) and late (Golgi to plasma membrane) time points.
as §1
Cells were fixed in paraformaldehyde 3% for 15 min, washed in PBS (Phosphate Buffer Saline) and free aldehydes were quenched in NH4Cl 50 mM for 5 min. Cells were then permeabilized in PBS containing Bovine Serum Albumine (BSA 0.5%) and Saponine (Sapo 0.05%) [PBS/BSA/Sapo] for 20 min and incubated with primary antibodies (human anti-Giantin, Nizak et al. 2003, Moutel et al., 2009) in the same buffer for 30 min Cells were washed in PBS and incubated in PBS/BSA/Sapo with fluorescently labelled secondary antibodies (Jackson Immunoresearch) for 20 min Nuclei were counter-stained with DAPI (4′,6-Diamidino-2-phenylindole, Sigma-Aldrich). Cells were finally washed in PBS before being mounted in Mowiol (Sigma-Aldrich) and observed by fluorescent microscopy.
A hook was constructed using the ER localized Ii33 fused to monomeric Streptavidin (SEQ ID NO:3) (FRAP of the construct from Example 1 is replaced by monomeric Streptavidin). The reporter was the Golgi localization domain of Sialyl Transferase as used in Example 1. The Hook and reporter were co-expressed in cells and the two domains, streptavidin and SBP-tag interact by default, preventing ST transport to the Golgi apparatus. Release of ST was achieved using moderate concentration of free biotin (around 1-10 μM).

Setting [3] is: upon biotin addition, surface anti-GFP.

T2 sequence (P22629 25-183 V79T/T100R/L133T/V149R limits assumed): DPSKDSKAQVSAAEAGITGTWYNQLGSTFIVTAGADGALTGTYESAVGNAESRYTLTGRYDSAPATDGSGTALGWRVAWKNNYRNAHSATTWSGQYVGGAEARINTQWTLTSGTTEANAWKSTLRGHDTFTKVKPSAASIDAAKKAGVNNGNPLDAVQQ
T1 sequence (P22629 with tags, fused parts or gaps): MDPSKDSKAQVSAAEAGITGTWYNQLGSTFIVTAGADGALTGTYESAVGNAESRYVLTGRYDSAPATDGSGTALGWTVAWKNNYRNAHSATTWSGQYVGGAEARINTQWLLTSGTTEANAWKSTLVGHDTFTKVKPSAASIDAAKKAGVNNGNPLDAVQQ

In the case of `O=C(O)CCCC[C@@H]1SC[C@@H]2NC(=O)N[C@@H]21` [Biotin, D-Biotin], the “release of reporter TMD22 toward the plasma membrane” value in assay [1] is “release was observed”. Moreover, the “time by which reporter labels massively the Golgi apparatus” value in assay [2] (reporter ST-SBP-GFP, biotin added at 00:00, 37° C.) was no more than 30 min. Moreover, the “concentration of free biotin achieving release of ST” value in assay [2] (reporter ST, hook Ii33-Streptavidin) is 1 to 10 µM. The “release of reporters ST-SBP-GFP and ManII-SBP-mCherry to the Golgi apparatus” value in assay [2] (upon addition of biotin) is recorded as “they both reach the Golgi apparatus”. In addition, in assay [2] (setting [3]), the “release of reporter SBP-GFP-Ecadherin to the plasma membrane” value is “the reporter is released and reaches its target plasma membrane compartment”; the “release of reporter SBP-GFP-VSV-G to the plasma membrane” value was “the reporter is released and reaches its target plasma membrane compartment”.

(Values after patent US20120149101A1, “METHODS AND KITS FOR REGULATING INTRACELLULAR TRAFFICKING OF A TARGET PROTEIN” (INSTITUT CURIE, priority 2009, published 2012).)
